Paper PMC10511816 (The Journal of Biological Chemistry, 2023)

Key:
[1] = tested on: mouse model of hyperuricemia; test: mouse model of hyperuricemia (potassium oxonate), plasma purines by HPLC; type: in vivo; settings: for plasma hypoxanthine levels vs control / plasma xanthine levels vs control: 1 h
Method: To compare the inhibitory effect of allopurinol and oxypurinol on uric acid production, mice were treated with oxonate to inhibit uricase and induce hyperuricemia.
Figure 2 Comparison of the effects of allopurinol and oxypurinol in a model of hyperuricemia. […] Statistical analysis was performed using one-way ANOVA and Turkey’s multiple comparison test. ∗p < 0.05, ∗∗p < 0.01, ∗∗∗∗p < 0.0001.
Six-week-old specific-pathogen free-grade male Institute of Cancer Research mice were purchased from Japan SLC. All animal experiments were performed according to the protocol approved by the Animal Care and Ethics Committee of Tokyo University of Pharmacy and Life Sciences (Permit No. P21-80). Mice were housed under conditions of 22 to 24 °C, 40 to 60% humidity, and a 12-h light/12-h dark cycle. Food and water were administered ad libitum.
Oxypurinol or allopurinol was suspended in 0.5% carboxymethyl cellulose and administered intraperitoneally at 3 mg/kg or 10 mg/kg (n = 11). The control group received 0.5% carboxymethyl cellulose (n = 5). Immediately after intraperitoneal administration, potassium oxonate was injected subcutaneously at 300 mg/kg. One hour after administration, mice were sacrificed by cervical dislocation, and blood was collected with heparin. […] Statistical analysis was performed using GraphPad Prism 9 software (www.graphpad.com).
(§1) Purine concentrations were measured using a Shimadzu HPLC system consisting of the CBM-20A controller, LC-20AD pump, SIL-20AC autosampler (set at 4 °C), CTO-20A column oven (set at 40 °C), and SPD-M20A diode array detector. Peak analysis was performed using LC solution software. A SUPELCOSIL LC-18-T column (25 cm × 4.6 mm id 5 μm particle size) was used with the SUPELCOSIL LC-18-T Supelguard guard column separation of purines, using a flow rate was 0.8 ml/min and 10 or 20 μl samples. The mobile phase used was A: 0.1 M KPB and 4 mM tetrabutylammonium hydrogen sulfate (pH 5.5), B: 70% buffer A and 30% methanol (v/v). Gradient conditions were 0 min (0% B), 2 min (0% B), 4 min (30% B), 12 min (60% B), 15 min (100% B), 19 min (100% B), 20 min (0% B), and 30 min (0% B). Detection wavelengths were 254 nm, 268 nm, and 295 nm. The data were analyzed using LabSolutions Ver. 5.97 SP1. All purines were identified by retention time and quantified using an external standard.

[2] = target: T1, Purine nucleoside phosphorylase (PNP) (Homo sapiens, UniProt P00491); test: PNP activity assay (inosine degradation, HPLC); type: biochemical; settings: human recombinant PNP
T1 construct: purchased Sigma-Aldrich; host or cells: E. coli
T1 sequence (P00491 1-289): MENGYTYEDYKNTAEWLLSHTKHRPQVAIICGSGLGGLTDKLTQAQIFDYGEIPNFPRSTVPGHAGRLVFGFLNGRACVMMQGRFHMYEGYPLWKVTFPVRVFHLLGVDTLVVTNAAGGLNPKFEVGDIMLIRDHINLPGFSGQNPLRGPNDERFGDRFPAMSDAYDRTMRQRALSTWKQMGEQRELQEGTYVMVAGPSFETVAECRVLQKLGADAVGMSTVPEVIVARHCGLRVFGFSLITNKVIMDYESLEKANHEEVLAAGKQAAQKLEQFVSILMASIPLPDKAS
Excerpt: Plasma allopurinol never reaches that concentration, but oxypurinol concentrations could ([34], [35]). Although oxypurinol has been reported to have a stronger inhibitory effect than allopurinol ([32], [36]), the results were obtained prior to several reports on the cooperativity of PNP ([37]). […] This nonideal behavior may be a manifestation of the well-established allosteric properties of PNP ([37]).
Purine nucleoside phosphorylase (human, recombinantly expressed in E. coli) was purchased from Sigma-Aldrich. The reaction solution for inosine hydrolysis consisted of 50 mM KPB (pH 7.4), with varying concentrations of inosine and oxypurinol.
A295 indicates the concentration of uric acid yielded by XOR. […] A295 indicates the concentration of uric acid yielded by XOR. Figure S2. The XOR inhibition mode of oxypurinol.A–G, Lineweaver-Burk plots were generated to visualize data and estimated the inhibition patterns. Data are representative of least two independent experiments. […] The same as in A except that 1.23 nM XDH was used instead of XO and 500 μM NAD^+ was added to the reaction solution. […] The same as in D except that hypoxanthine was used instead of xanthine. […] The same as in D except that febuxostat was used instead of oxypurinol. […] The same as in F except that hypoxanthine was used instead of xanthine. Figure S3. […] Hypoxanthine, xanthine, and uric acid were measured by HPLC.

[3] = target: XO (Bos taurus, UniProt P80457); test: oxidation of hypoxanthine to xanthine and uric acid by XO, HPLC time course; type: biochemical, bovine; set-up: Bovine milk was obtained from the animal farm of the Nippon Veterinary and Life Science University; from tissue; host or cells: bovine milk
Sequence of XO (P80457 whole entry): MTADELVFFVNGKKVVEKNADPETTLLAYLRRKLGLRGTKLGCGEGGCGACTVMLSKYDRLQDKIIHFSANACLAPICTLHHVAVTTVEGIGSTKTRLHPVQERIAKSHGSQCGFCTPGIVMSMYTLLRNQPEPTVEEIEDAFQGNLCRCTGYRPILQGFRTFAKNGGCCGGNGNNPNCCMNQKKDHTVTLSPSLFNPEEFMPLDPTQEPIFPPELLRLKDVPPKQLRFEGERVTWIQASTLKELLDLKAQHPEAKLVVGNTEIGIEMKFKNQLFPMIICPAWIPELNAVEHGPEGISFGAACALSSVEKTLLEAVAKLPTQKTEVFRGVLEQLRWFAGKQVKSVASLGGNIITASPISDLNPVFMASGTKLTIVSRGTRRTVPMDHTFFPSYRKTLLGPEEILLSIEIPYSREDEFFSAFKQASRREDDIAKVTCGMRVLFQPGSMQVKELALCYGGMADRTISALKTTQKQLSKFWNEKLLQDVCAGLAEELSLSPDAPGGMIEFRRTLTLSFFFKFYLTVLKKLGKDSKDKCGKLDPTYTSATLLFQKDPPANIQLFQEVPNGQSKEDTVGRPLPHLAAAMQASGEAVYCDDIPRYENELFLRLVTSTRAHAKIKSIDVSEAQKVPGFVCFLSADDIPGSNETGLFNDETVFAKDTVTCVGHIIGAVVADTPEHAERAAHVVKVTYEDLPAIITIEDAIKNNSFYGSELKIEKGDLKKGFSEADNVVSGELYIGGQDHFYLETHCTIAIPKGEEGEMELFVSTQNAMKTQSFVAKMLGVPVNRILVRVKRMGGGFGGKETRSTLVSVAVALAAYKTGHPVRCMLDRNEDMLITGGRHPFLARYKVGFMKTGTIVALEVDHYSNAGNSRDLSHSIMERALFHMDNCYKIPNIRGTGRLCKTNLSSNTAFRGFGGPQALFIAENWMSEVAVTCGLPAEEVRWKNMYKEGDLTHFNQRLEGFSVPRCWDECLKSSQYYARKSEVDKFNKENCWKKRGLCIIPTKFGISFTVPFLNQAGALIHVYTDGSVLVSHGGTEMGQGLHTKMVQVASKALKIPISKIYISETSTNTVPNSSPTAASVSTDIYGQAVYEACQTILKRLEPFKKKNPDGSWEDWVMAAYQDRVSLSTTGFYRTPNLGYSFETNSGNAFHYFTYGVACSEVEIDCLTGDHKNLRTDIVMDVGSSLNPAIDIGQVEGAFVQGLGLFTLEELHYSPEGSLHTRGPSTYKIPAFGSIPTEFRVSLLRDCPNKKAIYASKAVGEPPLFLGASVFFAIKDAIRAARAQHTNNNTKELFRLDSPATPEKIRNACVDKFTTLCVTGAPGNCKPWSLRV
Method: The rate of NAD^+ conversion to NADH was measured at A340 nm.
Bovine milk was obtained from the animal farm of the Nippon Veterinary and Life Science University. […] The dehydrogenase form of the enzyme (XDH) was obtained by reacting XO immediately upon purification with 5 mM DTT at pH 8.5, 25 °C for 1 h. XO and XDH assays were carried out at 25 °C under aerobic conditions. […] A total of 500 μM β-NAD^+ was added to the same reaction solution for XDH activity. Physiological conditions such as pH 7.4 (0.1 M potassium phosphate buffer (KPB), 0.2 mM EDTA) and the addition of 50 μM β-NADH were also used. The activity was measured by following 295 nm and 340 nm on a UV-1800 or UV1900i spectrophotometer. […] In addition, the enzyme reaction solution was quenched with perchloric acid and neutralized with K2CO3, with products analyzed using HPLC as described below. Spectrophotometric data were analyzed using UV-Probe software Ver. 2.70 or LabSolutions UV-Vis Ver. […] Kinetic parameters were determined from nonlinear curve fits of raw data using GraphPad Prism 9 software.
as §1

[4] = tested on: hypoxanthine-guanine phosphoribosyltransferase (HGPRT); settings: cited from earlier work
[5] = 3 mg/kg intraperitoneal, 1 h after administration, oxonate-treated mice
[6] = one hour after 3 mg/kg allopurinol intraperitoneal

Structure (SMILES) | plasma hypoxanthine levels vs control ([1]; 3 mg/kg intraperitoneal) | plasma xanthine levels vs control ([1]; 3 mg/kg intraperitoneal) | plasma uric acid levels compared to the control group [1, 5] | plasma hypoxanthine levels vs control ([1]; 10 mg/kg intraperitoneal) | plasma xanthine levels vs control ([1]; 10 mg/kg intraperitoneal) | plasma uric acid levels ([1]; 10 mg/kg intraperitoneal, 1 h after administration, oxonate-treated mice) | inhibition of PNP [2] | mode of inhibition for inosine ([2]; 50 mM KPB pH 7.4, 0-1000 μM oxypurinol) | accumulation of xanthine from hypoxanthine ([3]; up to 500 μM inhibitor, XO and XDH) | allopurinol in plasma [1, 6] | oxypurinol in plasma [1, 6] | substrate or inhibitor of HGPRT [4] | time to inhibit conversion of hypoxanthine to xanthine ([3]; 10 μM inhibitor, 2.5 μM hypoxanthine, XO, pH 7.4, 25 °C) | inhibition of conversion of hypoxanthine to xanthine ([3]; 50 μM inhibitor, 2.5 μM hypoxanthine, XO)
O=c1[nH]c(=O)c2c[nH]nc2[nH]1 [Oxypurinol] | neither hypoxanthine nor xanthine concentrations were significantly different from the control group | neither hypoxanthine nor xanthine concentrations were significantly different from the control group | did not significantly reduce plasma uric acid levels | neither hypoxanthine nor xanthine concentrations were significantly different from the control group | neither hypoxanthine nor xanthine concentrations were significantly different from the control group | reduce plasma uric acid to that seen with 3 mg/kg allopurinol | weakly but allosterically inhibits PNP | competitive | accumulation of xanthine was still significant even at 500 μM oxypurinol | – | – | – | – | –
Oc1ncnc2[nH]ncc12 [Allopurinol] | significantly increased plasma hypoxanthine levels | xanthine levels were largely unaffected | significantly decreased plasma uric acid levels | – | – | – | – | – | – | little allopurinol was detected in the plasma | a small amount of oxypurinol was also observed | is a substrate | about 5 min | inhibition was immediate
